# Test results as given in ChEMBL document CHEMBL5150004, “Targeting Rearranged during Transfection in Cancer: A Perspective on Small-Molecule Inhibitors and Their Clinical Development” (J Med Chem, 2021).
# Columns and labels:
# [1] = target: Vascular endothelial growth factor receptor 2 (Homo sapiens, UniProt P35968); test: Inhibition of recombinant VEGFR2 (unknown origin) incubated for 120 mins by Perkin Elmer electrophoretic mobility shift platform method
# [2] = Inhibition of RET G810R (unknown origin); design: species or system Homo sapiens
# [3] = Inhibition of human recombinant RET Y719F using Biotin-EGPWLEEEEEAYGWMDF as substrate by TR-FRET assay
# [4] = test system: NB1; test: cells; conditions: Homo sapiens
# [5] = Cytotoxicity against human TT-1 cells expressing RET incubated for 72 hrs by celltitre blue assay; format: functional
# [6] = test system: Hs-578T; test: Cytotoxicity against human Hs-578T cells expressing BRAF incubated for 72 hrs by celltitre blue assay; format: functional
# [7] = test system: LNCaP; test: Cytotoxicity against human LNCaP cells expressing BRAF incubated for 72 hrs by celltitre blue assay; format: functional
# [8] = test system: COLO 205; test: Cytotoxicity against human COLO 205 cells expressing BRAF V600E mutant incubated for 72 hrs by celltitre blue assay; format: functional
# [9] = test system: A-375; test: Cytotoxicity against human A-375 cells expressing BRAF V600E mutant incubated for 72 hrs by celltitre blue assay; format: functional
# [10] = test system: HeLa; test: Cytotoxicity against human HeLa cells expressing CRAF incubated for 72 hrs by celltitre blue assay; format: functional
# [11] = test system: K562; test: Cytotoxicity against human K562 cells expressing BCR-ABL incubated for 72 hrs by celltitre blue assay; format: functional
# [12] = Cytotoxicity against HUVEC expressing VEGFR2 incubated for 72 hrs by celltitre blue assay; format: toxicity, cell-based; conditions: human
# [13] = Cytotoxicity against HUVEC expressing FLT-1 incubated for 72 hrs by celltitre blue assay; format: toxicity, cell-based; conditions: human
# [14] = test system: A-431; test: Cytotoxicity against human A-431 cells expressing C-KIT incubated for 72 hrs by celltitre blue assay; format: functional
# [15] = target: T1, Tyrosine-protein kinase ABL1 (Homo sapiens, UniProt P00519); test: Binding affinity to ABL (unknown origin) assessed as dissociation constant measured by ambit kinomescan assay
# T1 sequence (P00519 whole entry): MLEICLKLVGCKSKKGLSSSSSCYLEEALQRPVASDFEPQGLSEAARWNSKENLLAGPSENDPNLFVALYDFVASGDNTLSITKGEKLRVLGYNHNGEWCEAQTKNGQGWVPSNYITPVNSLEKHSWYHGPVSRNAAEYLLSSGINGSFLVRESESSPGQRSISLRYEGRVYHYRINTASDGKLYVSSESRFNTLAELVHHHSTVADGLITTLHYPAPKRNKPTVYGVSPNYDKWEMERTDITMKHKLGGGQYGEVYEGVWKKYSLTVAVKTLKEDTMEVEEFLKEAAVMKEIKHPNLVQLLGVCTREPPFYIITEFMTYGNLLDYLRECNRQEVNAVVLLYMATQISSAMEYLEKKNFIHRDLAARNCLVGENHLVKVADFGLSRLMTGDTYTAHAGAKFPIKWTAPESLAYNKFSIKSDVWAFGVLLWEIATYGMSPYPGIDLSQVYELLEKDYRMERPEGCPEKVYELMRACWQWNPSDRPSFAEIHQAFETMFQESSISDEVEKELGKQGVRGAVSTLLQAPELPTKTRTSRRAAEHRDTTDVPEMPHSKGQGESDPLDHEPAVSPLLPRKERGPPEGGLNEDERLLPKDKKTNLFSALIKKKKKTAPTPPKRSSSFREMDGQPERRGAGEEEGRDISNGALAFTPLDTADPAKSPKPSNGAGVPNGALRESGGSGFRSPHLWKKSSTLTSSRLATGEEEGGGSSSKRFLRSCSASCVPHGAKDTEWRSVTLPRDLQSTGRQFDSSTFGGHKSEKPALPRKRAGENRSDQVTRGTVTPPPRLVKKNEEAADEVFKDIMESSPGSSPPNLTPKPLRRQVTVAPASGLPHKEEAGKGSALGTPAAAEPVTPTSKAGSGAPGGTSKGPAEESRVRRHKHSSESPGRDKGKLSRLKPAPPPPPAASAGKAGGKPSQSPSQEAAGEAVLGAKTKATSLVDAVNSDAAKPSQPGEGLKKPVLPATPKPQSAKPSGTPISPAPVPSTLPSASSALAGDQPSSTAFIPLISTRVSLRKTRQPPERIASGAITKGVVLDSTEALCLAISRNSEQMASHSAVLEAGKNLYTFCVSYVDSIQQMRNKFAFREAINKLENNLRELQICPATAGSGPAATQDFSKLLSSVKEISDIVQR
# [16] = target: RAF proto-oncogene serine/threonine-protein kinase (Homo sapiens, UniProt P04049); test: Inhibition of CRAF (unknown origin) by kinomescan assay
# RAF proto-oncogene serine/threonine-protein kinase, sequence (P04049 whole entry): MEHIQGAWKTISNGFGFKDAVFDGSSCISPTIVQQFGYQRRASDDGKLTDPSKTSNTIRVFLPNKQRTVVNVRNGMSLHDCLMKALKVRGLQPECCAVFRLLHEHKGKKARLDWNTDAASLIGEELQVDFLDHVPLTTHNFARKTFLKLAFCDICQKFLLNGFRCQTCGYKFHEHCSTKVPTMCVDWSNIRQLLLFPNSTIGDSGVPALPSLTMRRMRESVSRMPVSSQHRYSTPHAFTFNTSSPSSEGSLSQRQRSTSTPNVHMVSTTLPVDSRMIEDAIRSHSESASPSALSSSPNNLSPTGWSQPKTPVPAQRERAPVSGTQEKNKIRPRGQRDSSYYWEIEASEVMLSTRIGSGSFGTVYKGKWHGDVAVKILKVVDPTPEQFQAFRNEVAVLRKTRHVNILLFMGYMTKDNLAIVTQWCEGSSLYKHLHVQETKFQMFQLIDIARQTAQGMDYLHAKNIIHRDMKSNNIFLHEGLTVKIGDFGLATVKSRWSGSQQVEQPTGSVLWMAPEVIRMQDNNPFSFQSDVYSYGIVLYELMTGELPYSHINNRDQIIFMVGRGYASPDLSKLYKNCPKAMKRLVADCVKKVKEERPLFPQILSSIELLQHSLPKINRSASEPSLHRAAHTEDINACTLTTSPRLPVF
# [17] = target: T1, Tyrosine-protein kinase ABL1; test: Inhibition of ABL (unknown origin) by kinomescan assay
# [18] = Inhibition of C-KIT (unknown origin) by kinomescan assay; design: species or system Homo sapiens
# [19] = Inhibition of recombinant RET V804M (unknown origin) incubated for 120 mins by Perkin Elmer electrophoretic mobility shift platform method; design: species or system Homo sapiens
# [20] = Inhibition of RET V804M (unknown origin); design: species or system Homo sapiens
# [21] = Inhibition of p38 (unknown origin); design: species or system Homo sapiens
# [22] = target: Proto-oncogene tyrosine-protein kinase receptor Ret (Homo sapiens) (UniProt P07949); conditions: NIH3T3
# Proto-oncogene tyrosine-protein kinase receptor Ret (Homo sapiens), sequence (P07949 whole entry): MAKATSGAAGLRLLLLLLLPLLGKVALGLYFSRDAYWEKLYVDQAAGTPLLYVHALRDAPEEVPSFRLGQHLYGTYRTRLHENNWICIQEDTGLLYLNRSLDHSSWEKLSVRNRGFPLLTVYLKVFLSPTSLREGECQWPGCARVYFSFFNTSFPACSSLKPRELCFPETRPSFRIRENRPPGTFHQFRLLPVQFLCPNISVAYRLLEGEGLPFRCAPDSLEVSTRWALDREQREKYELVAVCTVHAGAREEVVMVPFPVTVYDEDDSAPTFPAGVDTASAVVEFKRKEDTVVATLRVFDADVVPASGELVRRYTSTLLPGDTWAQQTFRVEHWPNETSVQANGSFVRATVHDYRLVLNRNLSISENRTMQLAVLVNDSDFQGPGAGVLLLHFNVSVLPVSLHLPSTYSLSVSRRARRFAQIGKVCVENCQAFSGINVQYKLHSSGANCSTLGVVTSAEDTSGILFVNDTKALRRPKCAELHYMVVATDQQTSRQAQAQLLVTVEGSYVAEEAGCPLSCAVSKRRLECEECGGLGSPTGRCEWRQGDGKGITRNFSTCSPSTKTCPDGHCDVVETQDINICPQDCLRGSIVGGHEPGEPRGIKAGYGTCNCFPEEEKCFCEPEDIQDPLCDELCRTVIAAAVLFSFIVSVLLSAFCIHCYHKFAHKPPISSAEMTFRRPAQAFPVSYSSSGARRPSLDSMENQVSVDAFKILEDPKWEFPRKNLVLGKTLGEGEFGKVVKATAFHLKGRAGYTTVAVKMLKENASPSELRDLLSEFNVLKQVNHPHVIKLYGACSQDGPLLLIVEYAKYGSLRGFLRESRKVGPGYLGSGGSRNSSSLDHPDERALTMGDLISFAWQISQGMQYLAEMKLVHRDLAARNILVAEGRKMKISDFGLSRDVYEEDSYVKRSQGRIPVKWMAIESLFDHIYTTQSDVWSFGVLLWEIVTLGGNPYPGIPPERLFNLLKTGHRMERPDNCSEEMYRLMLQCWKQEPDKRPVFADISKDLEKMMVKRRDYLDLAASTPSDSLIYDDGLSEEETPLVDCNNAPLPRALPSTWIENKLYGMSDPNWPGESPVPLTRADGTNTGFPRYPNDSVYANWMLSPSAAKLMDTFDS
# Vascular endothelial growth factor receptor 2, sequence (P35968 whole entry): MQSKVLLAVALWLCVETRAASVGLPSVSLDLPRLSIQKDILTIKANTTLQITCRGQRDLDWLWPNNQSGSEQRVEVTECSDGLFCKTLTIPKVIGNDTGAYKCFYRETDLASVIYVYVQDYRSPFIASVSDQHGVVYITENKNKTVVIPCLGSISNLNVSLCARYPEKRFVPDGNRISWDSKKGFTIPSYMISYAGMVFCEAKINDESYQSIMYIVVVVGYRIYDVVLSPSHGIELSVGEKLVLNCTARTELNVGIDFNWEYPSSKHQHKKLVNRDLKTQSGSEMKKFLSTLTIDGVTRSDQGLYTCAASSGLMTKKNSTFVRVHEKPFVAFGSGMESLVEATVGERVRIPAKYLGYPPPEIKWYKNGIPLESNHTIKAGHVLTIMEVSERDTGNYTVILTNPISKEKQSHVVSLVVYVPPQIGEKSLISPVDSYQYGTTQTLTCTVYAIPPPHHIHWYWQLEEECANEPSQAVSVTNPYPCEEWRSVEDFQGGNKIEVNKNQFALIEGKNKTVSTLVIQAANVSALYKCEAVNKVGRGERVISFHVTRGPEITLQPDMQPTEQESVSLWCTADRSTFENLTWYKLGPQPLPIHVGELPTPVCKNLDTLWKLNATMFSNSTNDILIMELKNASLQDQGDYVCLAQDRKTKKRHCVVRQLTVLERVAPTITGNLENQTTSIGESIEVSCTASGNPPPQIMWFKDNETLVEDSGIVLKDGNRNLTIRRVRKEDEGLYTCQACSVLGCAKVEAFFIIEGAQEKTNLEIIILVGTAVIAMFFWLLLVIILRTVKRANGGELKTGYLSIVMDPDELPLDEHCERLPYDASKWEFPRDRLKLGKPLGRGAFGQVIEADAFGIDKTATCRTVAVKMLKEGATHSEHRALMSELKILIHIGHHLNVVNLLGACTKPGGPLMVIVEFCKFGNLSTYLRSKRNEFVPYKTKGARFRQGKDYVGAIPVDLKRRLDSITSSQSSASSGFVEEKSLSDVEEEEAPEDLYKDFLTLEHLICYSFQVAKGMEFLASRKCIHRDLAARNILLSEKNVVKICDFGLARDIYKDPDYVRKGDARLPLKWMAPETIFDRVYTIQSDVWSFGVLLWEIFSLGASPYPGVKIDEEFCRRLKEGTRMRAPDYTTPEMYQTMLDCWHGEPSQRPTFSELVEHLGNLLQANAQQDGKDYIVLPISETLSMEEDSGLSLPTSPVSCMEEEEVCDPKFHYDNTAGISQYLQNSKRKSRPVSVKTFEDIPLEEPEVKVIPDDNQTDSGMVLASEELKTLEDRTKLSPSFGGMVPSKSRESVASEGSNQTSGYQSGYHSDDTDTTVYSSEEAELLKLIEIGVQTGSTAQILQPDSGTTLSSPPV
compound,measurement,setting,value
COC1(C(=O)N[C@@H](C)c2ccc(-n3cc(F)cn3)nc2)CCC(c2nc(C)cc(Nc3cc(C)[nH]n3)n2)CC1 (some centres undefined),IC50,[1],0.035 µM
same,IC50,[2],> 0.5 µM
CCc1cc2c(cc1N1CCC(N3CCOCC3)CC1)C(C)(C)c1[nH]c3cc(C#N)ccc3c1C2=O [ALECTINIB],IC50,[3],0.014 µM
same,IC50,[4],0.0045 µM
COc1cc2ncnc(Oc3cccc(NC(=O)Nc4cc(C(C)(C)C(F)(F)F)on4)c3)c2cc1OC [CEP-32496],GI50,[5],0.021 µM
same,GI50,[6],2.74 µM
same,GI50,[7],6.63 µM
same,GI50,[8],0.06 µM
same,GI50,[9],0.084 µM
same,GI50,[10],≥ 3 µM
same,GI50,[11],0.07 µM
same,GI50 at 72 h,[12],≥ 0.7 µM
same,GI50 at 72 h,[13],≥ 1 µM
same,GI50,[14],1 µM
same,Kd,[15],0.0028 µM
same,IC50,[16],0.146 µM
same,IC50,[17],0.006 µM
same,IC50,[18],0.001 µM
C[C@H]1CNC(=O)c2cnn3cc4c(nc23)N(Cc2cc(F)cnc2O1)[C@@H]1CCC[C@@H]1O4 [ENBEZOTINIB],IC50,[2],0.017 µM
COc1ccc(CN2C3CC2CN(c2ccc(-c4cc(OCC(C)(C)O)cn5ncc(C#N)c45)cn2)C3)cn1 [SELPERCATINIB],IC50,[19],0.0008 µM
same,IC50,[2],> 0.5 µM
CNC(=O)c1cc(Oc2ccc(NC(=O)Nc3ccc(Cl)c(C(F)(F)F)c3)cc2)ccn1 [SORAFENIB],IC50,[20],0.0079 µM
same,IC50,[21],0.038 µM
same,GI50,[22],0.047 µM
